Ends that are not written are not given here.
Columns and labels:
S. cohnii L5 [1] = experiment: MIC, broth microdilution; assay type: cell-based, Staphylococcus cohnii; settings: for MICs of derivatives: strain not named in the sentence (table S6: S. cohnii L5 and E. coli)
[2] = test system: sheep red blood cells (RBCs); experiment: Hemolytic activity; assay type: cell-based; settings: 0 to 512 μM, 37°C, 1 hour
pH stability = assay type: physicochemical; settings: pH 2 to 12 for 1 and 2 hours, 37°C; read-out activity on S. cohnii L5
H9c2 cells = experiment: Cytotoxicity, WST-1 assay; assay type: cell-based, rat; settings: up to 512 μM, 24 hours
HEp-2 cells = experiment: Cytotoxicity, WST-1 assay; assay type: cell-based, human; settings: up to 512 μM, 24 hours
S. cohnii L5 [3] = experiment: Mouse skin wound infection model; assay type: in vivo; settings: 10 days; NCBP1 8 mg/kg
A549 cells = experiment: Cytotoxicity, WST-1 assay; assay type: cell-based; settings: up to 512 μM, 24 hours
BALB/c mice = experiment: In vivo toxicity experiments; design: species or system mouse; settings: after 5 days; intraperitoneal, highest dose 150 mg/kg; n = 5
Vero cells = experiment: Cytotoxicity, WST-1 assay; assay type: cell-based, African green monkey; settings: up to 512 μM, 24 hours

Sequence	MICs of derivatives (S. cohnii L5 [1]) [µM]	hemolytic activity [2]	pH stability (pH stability)	toxicity toward cells (H9c2 cells)	toxicity toward cells (HEp-2 cells)	growth of the mice, body weight (S. cohnii L5 [3])	toxicity toward cells (A549 cells)	survival rate of mice (BALB/c mice) [%]	toxicity toward cells (Vero cells)	MIC (S. cohnii L5 [1]; S. cohnii L5, broth microdilution, 18 h, 37°C) [µM]
APWLRVALCPG [NCBP1a]	> 512	–	–	–	–	–	–	–	–	–
KPWLRVALCPG [NCBP1]	–	no noticeable hemolytic activity	resistant to a wide range of pH values	negligible toxicity	negligible toxicity	did not affect the normal growth	negligible toxicity	100	negligible toxicity	16
KPWLAVALCPG [NCBP1b]	> 512	–	–	–	–	–	–	–	–	–

From paper PMC11922054 (Science Advances, 2025)
